In this experiment the test system is C57Bl/6J mice. The experiment can be described thus: Long-term NR supplementation of chow or high-fat diet fed mice. Type of experiment: in vivo. Here is the method: Animal Experiments. Male PARP-1^+/+ and PARP-1^−/− mice on a pure C57Bl/6J background (Menissier-de Murcia et al., 1997) were used. Mice were housed separately, had ad libitum access to water and standard rodent chow (10 kcal % of fat, Safe, Augy, France) or to a high calorie, high fat diet (60 kcal % of fat, Research. Diets, New Brunswick, N.J., USA), and were kept under a 12 h dark-light cycle. In other animal experiments, 8 weeks-old male C57Bl/6J mice were purchased from Charles River and powder chow (D12450B) and high fat (D12492) diets were from Research Diets Inc (New Brunswick, N.J., USA). 80 ml of water per kg of powder CD were used to make food pellets. 40 ml of water per kg of powder HFD were used to make food pellets. For NR, NMN and NA supplemented diets, the appropriate amount of these compounds was added to the water used to create the pellets, taking into account the differences in the daily intake of each diet. Mice were housed separately, had ad libitum access to water and food and were kept under a 12 h dark-light cycle. Mice were fed with homemade pellets from 10 weeks of age. To make the pellets, the powder food was mixed with water (vehicle) or with NR. All animal experiments were carried out according to local national and EU ethical guidelines. To monitor body weight, mice were weighed and the food consumption was measured each week on the same day. In case of PJ34 treatment, mice received each 12 h (at 7:00 and 19:00) 10 mg/kg PJ34 by intraperitoneal injection for 5 continuous days. In all studies animals were killed (at 14:00) either after CO2 inhalation or cervical dislocation after 6 h of fasting (starting at 8:00), and tissues were collected and processed as specified below. Oral glucose tolerance test, intraperitoneal insulin tolerance test, free fatty acid (FFA) and triglycerides were determined as described (Lagouge et al., 2006). Plasma insulin and was determined in heparinized plasma samples using specific ELISA kits (Mercodia). Blood samples were collected in heparinized tubes and plasma was isolated after centrifugation. Plasma parameters were measured using a Cobas c111 (Roche Diagnostics). Thermoadaptation was performed as described (Lagouge et al., 2006). We measured O2 consumption, CO2 production, and spontaneous locomotor activity in an open circuit indirect calorimetry system (Sabre systems, Las Vegas, Nev., USA) over 24-48 has described (Dali-Youcef et al., 2007; Lagouge et al., 2006; Watanabe et al., 2006). […] The respiratory quotient was the ratio of CO2 production over O2 consumption. During actimetry, beamline crossings were summarized each 15 minutes. […] Euglycemic-hyperinsulinemic clamps were performed in PARP-1^−/− and ^+/+ male mice (n=4 mice per genotype; age=4 months) exactly as previously described (Feige et al, 2008).
Instruments, total body fat was measured by echoMRI as described (Lagouge et al., 2006; Watanabe et al., 2006). Endurance test was performed as described in (Canto et al., 2009). Intraperitoneal glucose and insulin tolerance tests (IPGTT and IPITT, respectively) were performed as previously described (Feige et al, 2008). The animals were killed after 6 h of fasting by CO2 asphyxiation and tissues were collected. Total body fat content was then examined at autopsy, by weighing the subcutaneous, gonadal, mesenterial, retroperitoneal and BAT associated fat depots. Liver triglyceride was determined after Folch extraction using a commercial triglyceride kit (Roche). Pancreas and plasma insulin content was determined from acidic extracts using a commercial ELISA kit (Mercodia) (Champy et al., 2004).
Histology and Microscopy. Haematoxylin-eosin (HE), Oil Red-O and succinate-dehydrogenase (SDH) stainings were performed on […] tissue sections as described (Lagouge et al., 2006; Picard et al., 2002). Transmission electron microscopy (TEM) investigation was performed on glutaraldehyde-fixed, osmium tetroxyde stained ultrafine sections (Watanabe et al., 2006). […]

On to `NC(=O)c1ccc[n+]([C@@H]2O[C@H](CO)[C@@H](O)[C@H]2O)c1` [NR, nicotinamide riboside], for which the fasting insulin levels entry (16 weeks, 6 hr fast) is on record as “much lower”. Further, where the note is “CD and HFD”, the “thermogenic capacity (body temperature during cold exposure)” value is given as “enhanced thermogenic capacity”. For the same compound, for the setting “CD, NR 400 mg/kg/day”, the “O2 consumption rates on CD” value was “marked tendency to display higher O2 consumption rates”; the “RER changes between feeding and fasting periods” value is recorded as “higher amplitude of the changes in RER”; the “body weight on chow diet” value is listed as “no effect”. Under “HFD”, the HDL-cholesterol levels entry is recorded as “unaffected”, the “HFD-induced increase in LDL cholesterol” value is recorded as “partially prevented the increase”, the “cristae of mitochondria in BAT (electron microscopy)” value is reported as “more abundant cristae” and the “size of mitochondria in BAT (electron microscopy)” value is on record as “not being significantly larger”. For the setting “HFD, 10 weeks”, the “glucose tolerance (intraperitoneal glucose tolerance test)” value is “slight, albeit not significant, improvement in glucose tolerance” and the “insulin secretion during glucose tolerance test” value was “robust reduction in insulin secretion”. Also, the “endurance performance on HFD (treadmill)” value (HFD, 12 weeks) is reported as “significantly accentuated”. The “HFD-induced increase in total cholesterol” value (HFD, 16 weeks, 6 hr fast) is listed as “partially prevented the increase”. Besides, the “O2 consumption rates on HFD” value (HFD, NR 400 mg/kg/day) is “clearly significant”. Also, the “fat mass (Echo-MRI)” value (HFD, NR 400 mg/kg/day, 8 weeks) was “reduced fat mass”. In addition, the “HFD-induced body weight gain” value (HFD, NR 400 mg/kg/day, 12 weeks) is reported as “significantly attenuated”. Also, under “NR 400 mg/kg/day”, the activity pattern result was “did not affect the activity pattern”; the “liver triglycerides, less than vehicle-fed” value is on record as 40%; the “weight of the epididymal depot” value was “significant lower weight of the epididymal depot”. The food intake result (NR 400 mg/kg/day, especially on HFD) was “tendency to eat more”. Further, under “NR-fed vs vehicle fed”, the endurance performance entry is on record as “clear tendency to display a better endurance performance”. For the same compound, the “SDH staining of gastrocnemius muscle” value (mouse, in vivo) is reported as “more intense SDH staining”.
